{"source": "paper PMC9596378", "about": "“Discovery and molecular basis of subtype-selective cyclophilin inhibitors” (Nature Chemical Biology, 2022)", "assay_in_all_cases": "Chymotrypsin coupled prolyl-isomerase assay", "type_in_all_cases": "biochemical", "key": {"[1]": {"target": "T1, CypE (Homo sapiens, UniProt Q9UNP9)", "T1 construct": "PPIE (UniProtKB Entry Q9UNP9: residues 131–301); host or cells: E. coli BL21(DE3)", "T1 sequence (Q9UNP9 131-301)": "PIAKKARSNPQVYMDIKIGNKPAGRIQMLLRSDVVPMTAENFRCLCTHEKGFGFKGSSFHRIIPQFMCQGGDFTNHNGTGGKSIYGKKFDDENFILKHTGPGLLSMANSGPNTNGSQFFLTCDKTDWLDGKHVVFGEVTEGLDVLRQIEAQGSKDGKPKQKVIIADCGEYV", "conditions": "for prolyl-isomerase activity (raw dose-response value): CypE, in s^-1", "description": "(§1) Adapting a previously described protocol, with an Agilent Bravo Velocity 11 with a 384ST head, 90 µL assay buffer (25 mM HEPES pH 7.3, 100 mM NaCl, 0.01% Triton X-100) containing 5.28 nM cyclophilin was added into a flat, clear-bottom, black 384-well plate pre-chilled in a Corning CoolBox at 2–3 °C. Five microliters of compound pre-dissolved in 5% DMSO/assay buffer was then added to appropriate wells and incubated at 2–3 °C for 5 min. Five microliters of 0.5 mM α-chymotrypsin from bovine pancreas (Type II, lyophilized powder, Millipore-Sigma) in 20% 1 mM HCl/Assay Buffer was then added to each well and incubated at 2–3 °C for 5 min. The plate was then quickly transferred to a FLIPR Tetra High-Throughput Cellular Screening System (Molecular Devices). Using the internal liquid handling system of the FLIPR, 1 µL 0.5 mM Suc-AAPF-AMC (Chymotrypsin Substrate II, Millipore-Sigma) dissolved in 0.55 M LiCl/2,2,2-trifluoroethanol was added to each well, which was then mixed for 5 s, followed by immediate fluorescence measurements every 1 s for 330 s using a 360–380 nm excitation LED module and a 400–460 nm emission filter. Final concentrations of the plate include 5 nM cyclophilin, 0.25% DMSO, 25 µM α-chymotrypsin, 5 µM Suc-AAPF-AMC. Raw fluorescence data was analyzed by non-linear regression analysis with Prism v.9 by fitting one-phase association curves to each well. […] Rate constants calculated for each well (s^−1) were then normalized to substrate only (no prolyl-isomerase) and enzyme + substrate only controls. IC50 values were calculated as the value at which 50% inhibition was achieved on the non-linear regression fitted curve of each compound."}, "[2]": {"target": "T2, CypH (Homo sapiens, UniProt O43447)", "T2 construct": "PPIH (UniProtKB Entry O43447: residues 1–177); His6 with TEV site (2BT vector leader) (N); made in house; host or cells: E. coli BL21(DE3)", "T2 sequence (O43447 whole entry, the tested form may be a part)": "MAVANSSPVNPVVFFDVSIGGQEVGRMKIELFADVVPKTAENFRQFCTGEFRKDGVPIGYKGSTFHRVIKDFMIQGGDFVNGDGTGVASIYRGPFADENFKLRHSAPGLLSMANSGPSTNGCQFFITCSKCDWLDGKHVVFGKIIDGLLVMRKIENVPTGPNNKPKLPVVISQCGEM", "conditions": "for prolyl-isomerase activity (raw dose-response value): CypH", "description": "as §1"}, "[3]": {"target": "T3, CypG (Homo sapiens, UniProt Q13427)", "T3 construct": "PPIG (UniProtKB Entry Q13427: residues 1–179); His6 with thrombin site (pET28a LIC leader) (N); host or cells: E. coli BL21(DE3)", "T3 sequence (Q13427 1-179)": "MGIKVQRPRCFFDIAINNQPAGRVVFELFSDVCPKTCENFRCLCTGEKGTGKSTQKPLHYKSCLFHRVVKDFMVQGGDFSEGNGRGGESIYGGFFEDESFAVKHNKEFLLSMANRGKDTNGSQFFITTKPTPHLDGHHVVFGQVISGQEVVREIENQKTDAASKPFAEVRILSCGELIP", "conditions": "for prolyl-isomerase activity (raw dose-response value): CypG, in s^-1", "description": "as §1"}, "[4]": {"target": "T4, CypC (Homo sapiens, UniProt P45877)", "T4 construct": "PPIC (UniProtKB Entry P45877: residues 24–212); host or cells: E. coli BL21(DE3)", "T4 sequence (P45877 24-212)": "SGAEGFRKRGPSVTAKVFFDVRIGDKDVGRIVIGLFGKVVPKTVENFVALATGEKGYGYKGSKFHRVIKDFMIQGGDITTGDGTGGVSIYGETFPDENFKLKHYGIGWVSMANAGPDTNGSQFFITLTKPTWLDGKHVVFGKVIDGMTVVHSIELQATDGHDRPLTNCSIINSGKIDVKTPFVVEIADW", "conditions": "for prolyl-isomerase activity (raw dose-response value): CypC, in s^-1", "description": "as §1"}}, "note": "Values joined by “and” are separate entries in the source; they are usually repeats but may differ in a detail not shown here. Equal values may be shown once. Read-outs that look alike come from different tables or passages of the source."}
{"smiles": "NCCOCCNC(=O)[C@@H]1CCNC(=O)/C=C/C(=O)N2CCC[C@](Cc3ccccc3)(C2)C(=O)N[C@@H](Cc2ccc(-c3ccccc3)cc2)C(=O)NCc2ccccc2CC(=O)N1", "note": "[Compound B2]", "values": [{"measurement": "prolyl-isomerase activity (raw dose-response value)", "setting": "[1]; dose 0.0195312 µM", "value": "0.1041 and 0.09004 and 0.09109"}, {"measurement": "prolyl-isomerase activity (raw dose-response value)", "setting": "[1]; dose 0.0390625 µM", "value": "0.08953 and 0.08464 and 0.08549"}, {"measurement": "prolyl-isomerase activity (raw dose-response value)", "setting": "[1]; dose 0.078125 µM", "value": "0.08163 and 0.08105 and 0.08006"}, {"measurement": "prolyl-isomerase activity (raw dose-response value)", "setting": "[1]; dose 0.15625 µM", "value": "0.07541 and 0.07108 and 0.06602"}, {"measurement": "prolyl-isomerase activity (raw dose-response value)", "setting": "[1]; dose 0.3125 µM", "value": "0.0578 and 0.05386 and 0.0523"}, {"measurement": "prolyl-isomerase activity (raw dose-response value)", "setting": "[1]; dose 0.625 µM", "value": "0.04345 and 0.04205 and 0.03853"}, {"measurement": "prolyl-isomerase activity (raw dose-response value)", "setting": "[1]; dose 1.25 µM", "value": "0.03208 and 0.02851 and 0.02629"}, {"measurement": "prolyl-isomerase activity (raw dose-response value)", "setting": "[1]; dose 2.5 µM", "value": "0.02324 and 0.0218 and 0.01925"}, {"measurement": "prolyl-isomerase activity (raw dose-response value)", "setting": "[1]; dose 5 µM", "value": "0.01397 and 0.01461 and 0.01313"}, {"measurement": "prolyl-isomerase activity (raw dose-response value)", "setting": "[1]; dose 10 µM", "value": "0.008566 and 0.009565 and 0.009677"}, {"measurement": "IC50", "setting": "[1]; wild-type CypE, read-out: Wild-Type Cyclophilin Prolyl Isomerase Inhibition IC50 Values, CypE", "value": 0.3, "unit": "µM"}, {"measurement": "prolyl-isomerase activity (raw dose-response value)", "setting": "[2]; dose 0.0228624 µM", "value": "0.05989 and 0.06269 and 0.07687"}, {"measurement": "prolyl-isomerase activity (raw dose-response value)", "setting": "[2]; dose 0.0685871 µM", "value": "0.06674 and 0.06641 and 0.06471"}, {"measurement": "prolyl-isomerase activity (raw dose-response value)", "setting": "[2]; dose 0.205761 µM", "value": "0.06507 and 0.06674 and 0.06594"}, {"measurement": "prolyl-isomerase activity (raw dose-response value)", "setting": "[2]; dose 0.617284 µM", "value": "0.06577 and 0.07132 and 0.06657"}, {"measurement": "prolyl-isomerase activity (raw dose-response value)", "setting": "[2]; dose 1.85185 µM", "value": "0.06049 and 0.06065 and 0.0705"}, {"measurement": "prolyl-isomerase activity (raw dose-response value)", "setting": "[2]; dose 5.55556 µM", "value": "0.06127 and 0.06318 and 0.06895"}, {"measurement": "prolyl-isomerase activity (raw dose-response value)", "setting": "[2]; dose 16.6667 µM", "value": "0.05909 and 0.0562 and 0.05955"}, {"measurement": "prolyl-isomerase activity (raw dose-response value)", "setting": "[2]; dose 50 µM", "value": "0.04477 and 0.04513 and 0.04995"}, {"measurement": "IC50", "setting": "[2]; prolyl-isomerase inhibition, 5 nM cyclophilin, read-out: IC50 CypH", "value": "~100", "unit": "µM"}, {"measurement": "IC50", "setting": "[2]; wild-type CypH, read-out: Wild-Type Cyclophilin Prolyl Isomerase Inhibition IC50 Values, CypH", "value": 100, "unit": "µM"}, {"measurement": "prolyl-isomerase activity (raw dose-response value)", "setting": "[3]; dose 6.25 µM", "value": "0.07439 and 0.0801 and 0.0712"}, {"measurement": "prolyl-isomerase activity (raw dose-response value)", "setting": "[3]; dose 12.5 µM", "value": "0.06556 and 0.07016 and 0.06297"}, {"measurement": "prolyl-isomerase activity (raw dose-response value)", "setting": "[3]; dose 25 µM", "value": "0.0539 and 0.06023 and 0.05271"}, {"measurement": "prolyl-isomerase activity (raw dose-response value)", "setting": "[3]; dose 50 µM", "value": "0.04026 and 0.03816 and 0.04547"}, {"measurement": "prolyl-isomerase activity (raw dose-response value)", "setting": "[3]; dose 100 µM", "value": "0.02765 and 0.03143"}, {"measurement": "IC50", "setting": "[3]; wild-type CypG, read-out: Wild-Type Cyclophilin Prolyl Isomerase Inhibition IC50 Values, CypG", "value": 37, "unit": "µM"}, {"measurement": "prolyl-isomerase activity (raw dose-response value)", "setting": "[4]; dose 0.00976562 µM", "value": "0.05723 and 0.05806 and 0.05564"}, {"measurement": "prolyl-isomerase activity (raw dose-response value)", "setting": "[4]; dose 0.0195312 µM", "value": "0.05812 and 0.0569 and 0.05659"}, {"measurement": "prolyl-isomerase activity (raw dose-response value)", "setting": "[4]; dose 0.0390625 µM", "value": "0.05511 and 0.05318 and 0.05171"}, {"measurement": "prolyl-isomerase activity (raw dose-response value)", "setting": "[4]; dose 0.078125 µM", "value": "0.04827 and 0.04606 and 0.04304"}, {"measurement": "prolyl-isomerase activity (raw dose-response value)", "setting": "[4]; dose 0.15625 µM", "value": "0.04287 and 0.04429 and 0.04035"}, {"measurement": "prolyl-isomerase activity (raw dose-response value)", "setting": "[4]; dose 0.3125 µM", "value": "0.03472 and 0.03475 and 0.034"}, {"measurement": "prolyl-isomerase activity (raw dose-response value)", "setting": "[4]; dose 0.625 µM", "value": "0.02805 and 0.0282 and 0.0272"}, {"measurement": "prolyl-isomerase activity (raw dose-response value)", "setting": "[4]; dose 1.25 µM", "value": "0.02258 and 0.02214 and 0.02094"}, {"measurement": "prolyl-isomerase activity (raw dose-response value)", "setting": "[4]; dose 2.5 µM", "value": "0.01704 and 0.018 and 0.01642"}, {"measurement": "prolyl-isomerase activity (raw dose-response value)", "setting": "[4]; dose 5 µM", "value": "0.01304 and 0.01485 and 0.01185"}, {"measurement": "prolyl-isomerase activity (raw dose-response value)", "setting": "[4]; dose 10 µM", "value": "0.009494 and 0.009626 and 0.009002"}, {"measurement": "IC50", "setting": "[4]; wild-type CypC, read-out: Wild-Type Cyclophilin Prolyl Isomerase Inhibition IC50 Values, CypC", "value": 0.38, "unit": "µM"}]}
